Here are results for 47 molecules from patent US8003649B2 (AstraZeneca AB, priority 2007, dated 2011).

The structures appear in SMILES notation.

The target of this experiment is T1, Androgen Receptor (AR) (Homo sapiens, UniProt P10275, T878A).
T1 construct: cell based immuno-fluorescence assay using the LNCaP prostate epithelial cell line; endogenous in cells; host or cells: LNCaP clone FGC (ATCC CRL-1740)
T1 sequence (P10275 1-920 T878A): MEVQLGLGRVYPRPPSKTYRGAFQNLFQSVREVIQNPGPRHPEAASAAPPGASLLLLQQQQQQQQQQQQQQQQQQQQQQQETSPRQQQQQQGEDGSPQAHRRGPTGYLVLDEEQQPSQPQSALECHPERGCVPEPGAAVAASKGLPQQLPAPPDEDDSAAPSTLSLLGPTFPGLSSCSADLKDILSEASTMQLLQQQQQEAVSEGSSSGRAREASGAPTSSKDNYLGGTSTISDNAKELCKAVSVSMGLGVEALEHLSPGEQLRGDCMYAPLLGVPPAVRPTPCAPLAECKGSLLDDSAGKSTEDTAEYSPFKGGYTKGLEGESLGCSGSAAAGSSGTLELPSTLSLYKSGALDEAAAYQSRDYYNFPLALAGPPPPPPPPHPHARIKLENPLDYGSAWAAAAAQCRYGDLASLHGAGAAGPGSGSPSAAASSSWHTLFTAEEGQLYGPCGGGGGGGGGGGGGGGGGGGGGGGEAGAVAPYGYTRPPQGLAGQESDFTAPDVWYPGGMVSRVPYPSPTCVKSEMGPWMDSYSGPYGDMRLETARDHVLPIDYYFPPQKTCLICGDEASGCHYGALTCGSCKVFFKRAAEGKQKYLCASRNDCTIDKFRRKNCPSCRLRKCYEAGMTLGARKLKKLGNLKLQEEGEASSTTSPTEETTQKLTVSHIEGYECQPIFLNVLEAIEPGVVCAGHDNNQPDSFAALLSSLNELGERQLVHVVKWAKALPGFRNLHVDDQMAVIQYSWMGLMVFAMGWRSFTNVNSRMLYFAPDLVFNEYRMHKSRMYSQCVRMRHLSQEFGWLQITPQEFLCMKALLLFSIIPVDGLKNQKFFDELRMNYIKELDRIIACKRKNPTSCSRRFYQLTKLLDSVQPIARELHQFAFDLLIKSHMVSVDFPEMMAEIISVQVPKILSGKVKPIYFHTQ
As to the kind of experiment: LNCaP Androgen Receptor Down-regulation Cell Assay (immunofluorescence end point). The note with it: LNCaP prostate carcinoma cells, compound incubation 20-22 hours, 50% reduction of the AR signal; read-out: Androgen Receptor Down-regulation Assay (a) IC50/μM. Type of experiment: cell-based. The gist of the method:
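LNCaP cells in medium with 5% charcoal-stripped FBS were plated overnight, then treated with a compound dilution series for 20-22 h at 37° C. After fixation, permeabilisation and immunostaining, AR-associated green fluorescence was quantified by laser-scanning microplate cytometry; AR down-regulation expressed as IC50 from fitted dose-response curves.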
Consider `CN(C)CCCOc1ccc(C2CCN(c3ccc4nnc(C(F)(F)F)n4n3)CC2)cc1` [Example 726], for which the DC50 came to 1.4 µM. As to `FC(F)(F)c1nnc2ccc(N3CCC(c4ccc(OCCCN5CCNCC5)cc4)CC3)nn12` [Example 728, 6-[4-[4-(3-piperazin-1-ylpropoxy)phenyl]piperidin-1-yl]-3-(trifluoromethyl)[1,2,4]triazolo[4,3-b]pyridazine], the DC50 turned out to be 1.5 µM. For `Cc1cc(COc2ccc(C3CCN(c4ccc5nnc(C(F)(F)F)n5n4)CC3)cc2)no1` [Example 729] the value was 0.92 µM; for `CN(C)CCOc1ccc(C2CCN(c3ccc4nnc(C(F)(F)F)n4n3)CC2)cc1` [Example 730], 0.72 µM; for `FC(F)(F)c1nnc2ccc(N3CCC(c4ccc(OCCN5CCOCC5)cc4)CC3)nn12` [Example 731], 1.1 µM.

With `CN1CCN(CCCOc2ccc(C3CCN(c4ccc5nnc(C(F)(F)F)n5n4)CC3)cc2)CC1` [Example 732], the DC50 was 1.1 µM. On to `FC(F)(F)c1nnc2ccc(N3CCC(c4ccc(OCc5ccon5)cc4)CC3)nn12` [Example 733], for which the DC50 was 0.6 µM. Take `FC(F)(F)c1nnc2ccc(N3CCC(c4ccc(OCc5cnco5)cc4)CC3)nn12` [Example 734]: the DC50 came out at 2.5 µM. Turning to `CN1CCN(CCOc2ccc(C3CCN(c4ccc5nnc(C(F)(F)F)n5n4)CC3)cc2)CC1` [Example 735], the DC50 was determined as 1.9 µM. Take `Cn1nccc1COc1ccc(C2CCN(c3ccc4nnc(C(F)(F)F)n4n3)CC2)cc1` [Example 736]: the DC50 was 0.4 µM. For `OCCOc1cccc(C2CCN(c3ccc4nnc(C(F)(F)F)n4n3)CC2)c1` [Example 737, 2-[3-[1-[3-(trifluoromethyl)[1,2,4]triazolo[4,3-b]pyridazin-6-yl]piperidin-4-yl]phenoxy]ethanol] the value was 0.74 µM; for `O=C(c1ccc(C2CCN(c3ccc4nnc(C(F)(F)F)n4n3)CC2)cc1)N1CC[C@@H](O)C1` [Example 738], 3.3 µM; for `O=C(c1ccc(C2CCN(c3ccc4nnc(C(F)(F)F)n4n3)CC2)cc1)N1CC[C@H](O)C1` [Example 739], 3.2 µM. Under `O=C(c1ccc(C2CCN(c3ccc4nnc(C(F)(F)F)n4n3)CC2)cc1)N1CCC(O)CC1` [Example 740] stands 2 µM. For the molecule `CN(CCS(C)(=O)=O)C(=O)c1ccc(C2CCN(c3ccc4nnc(C(F)(F)F)n4n3)CC2)cc1` [Example 741], the DC50 was 2.2 µM. Under `CN1CCN(C(=O)c2ccc(N3CCN(c4ccc5nnc(C(F)(F)F)n5n4)CC3)cc2)CC1` [Example 744] stands 9.6 µM; under `COCCNC(=O)c1ccc(N2CCN(c3ccc4nnc(C(F)(F)F)n4n3)CC2)cc1` [Example 745], 3.4 µM; under `CN(C)C(=O)c1ccc(N2CCN(c3ccc4nnc(C(F)(F)F)n4n3)CC2)cc1` [Example 746], 3.3 µM. For `O=C(c1ccc(N2CCN(c3ccc4nnc(C(F)(F)F)n4n3)CC2)cc1)N1CC[C@@H](O)C1` [Example 747] the value was 23 µM; for `O=C(c1ccc(N2CCN(c3ccc4nnc(C(F)(F)F)n4n3)CC2)cc1)N1CCCC1` [Example 748], 5.6 µM. For the molecule `O=C(c1ccc(N2CCN(c3ccc4nnc(C(F)(F)F)n4n3)CC2)cc1)N1CCOCC1` [Example 749], the DC50 is greater than 22 µM. As to `O=C(NCCN1CCOCC1)c1ccc(N2CCN(c3ccc4nnc(C(F)(F)F)n4n3)CC2)cc1` [Example 750], the DC50 stood at 2.6 µM. For `COCCN(C)C(=O)c1ccc(N2CCN(c3ccc4nnc(C(F)(F)F)n4n3)CC2)cc1` [Example 751], the DC50 came to 6.3 µM.

`CN(CCN1CCCC1=O)C(=O)c1ccc(C2CCN(c3ccc4nnc(C(F)(F)F)n4n3)CC2)cc1` [Example 753, N-methyl-N-[2-(2-oxopyrrolidin-1-yl)ethyl]-4-[1-[3-(trifluoromethyl)[1,2,4]triazolo[4,3-b]pyridazin-6-yl]piperidin-4-yl]benzamide]: the DC50 was 2.1 µM. Under `CN(CCN1CCOCC1)C(=O)c1ccc(C2CCN(c3ccc4nnc(C(F)(F)F)n4n3)CC2)cc1` [Example 754, N-methyl-N-(2-morpholin-4-ylethyl)-4-[1-[3-(trifluoromethyl)[1,2,4]triazolo[4,3-b]pyridazin-6-yl]piperidin-4-yl]benzamide] stands 2.5 µM; under `FC(F)(F)c1nnc2ccc(N3CCN(c4ccc(OCCN5CCCC5)cc4)CC3)nn12` [Example 755], 2.2 µM. For `FC(F)(F)c1nnc2ccc(N3CCN(c4ccc(OCc5ccon5)cc4)CC3)nn12` [Example 757], the DC50 is greater than 12 µM.

`Fc1cc(Cl)cc(CN2CCN(c3ccc4nnc(C(F)(F)F)n4n3)CC2)c1` [Example 759]: the DC50 amounted to 3.9 µM.

As for `Fc1cc(CN2CCN(c3ccc4nnc(C(F)(F)F)n4n3)CC2)cc(C(F)(F)F)c1` [Example 760], the DC50 was greater than 3.1 µM. Consider `Fc1cccc(CN2CCN(c3ccc4nnc(C(F)(F)F)n4n3)CC2)c1C(F)(F)F` [Example 761], for which the DC50 was 1.5 µM. `Fc1cc(F)c(F)c(CN2CCN(c3ccc4nnc(C(F)(F)F)n4n3)CC2)c1` [Example 763]: the DC50 was greater than 9.8 µM. On to `Fc1ccc(F)c(CN2CCN(c3ccc4nnc(C(F)(F)F)n4n3)CC2)c1F` [Example 764], for which the DC50 was 2.5 µM. Take `CS(=O)(=O)c1ccc(F)cc1CN1CCN(c2ccc3nnc(C(F)(F)F)n3n2)CC1` [Example 765]: the DC50 was 8.8 µM. Under `Fc1ccc(CN2CCN(c3ccc4nnc(C(F)(F)F)n4n3)CC2)c(F)c1F` [Example 766] stands greater than 17 µM. For `Fc1cc(CN2CCN(c3ccc4nnc(C(F)(F)F)n4n3)CC2)cc(F)c1F` [Example 767] the value was greater than 12 µM; for `Fc1cccc(CN2CCN(c3ccc4nnc(C(F)(F)F)n4n3)CC2)c1Cl` [Example 768], 4.7 µM; for `FC(F)(F)c1nnc2ccc(N3CCN(Cc4cncc(Cl)c4)CC3)nn12` [Example 770], 6.3 µM. For `FC(F)(F)c1nnc2ccc(N3CCN(Cc4cncc(Br)c4)CC3)nn12` [Example 774] the value was 8 µM; for `COc1ncccc1CN1CCN(c2ccc3nnc(C(F)(F)F)n3n2)CC1` [Example 775], 6.8 µM. On to `Cc1ccc(CN2CCN(c3ccc4nnc(C(F)(F)F)n4n3)CC2)cn1` [Example 776], for which the DC50 was found to be 6.9 µM. With `FC(F)(F)c1ncccc1CN1CCN(c2ccc3nnc(C(F)(F)F)n3n2)CC1` [Example 777], the DC50 was 4.6 µM.

As to `CS(=O)(=O)c1cc(F)cc(CN2CCN(c3ccc4nnc(C(F)(F)F)n4n3)CC2)c1` [Example 778, 6-[4-[3-fluoro-5-(methylsulfonyl)benzyl]piperazin-1-yl]-3-(trifluoromethyl)[1,2,4]triazolo[4,3-b]pyridazine], the DC50 came out at 2.6 µM. For the molecule `Fc1ccc(C(F)F)c(CN2CCN(c3ccc4nnc(C(F)(F)F)n4n3)CC2)c1` [Example 779, 6-[4-[2-(difluoromethyl)-5-fluorobenzyl]piperazin-1-yl]-3-(trifluoromethyl)[1,2,4]triazolo[4,3-b]pyridazine], the DC50 came out at 0.54 µM. Under `Fc1ccc(C(F)F)c(CN2CCN(c3ccc4nnc(C(F)F)n4n3)CC2)c1` [Example 780, 3-(difluoromethyl)-6-[4-[2-(difluoromethyl)-5-fluorobenzyl]piperazin-1-yl][1,2,4]triazolo[4,3-b]pyridazine] stands 0.51 µM; under `Fc1cccc(CN2CCN(c3ccc4nnc(C(F)(F)F)n4n3)CC2)c1C(F)F` [Example 781, 6-[4-[2-(difluoromethyl)-3-fluorobenzyl]piperazin-1-yl]-3-(trifluoromethyl)[1,2,4]triazolo[4,3-b]pyridazine], 0.82 µM; under `Fc1cccc(CN2CCN(c3ccc4nnc(C(F)F)n4n3)CC2)c1C(F)F` [Example 782, 3-(difluoromethyl)-6-[4-[2-(difluoromethyl)-3-fluorobenzyl]piperazin-1-yl][1,2,4]triazolo[4,3-b]pyridazine], 2 µM. Under `Fc1cc(CN2CCN(c3ccc4nnc(C(F)(F)F)n4n3)CC2)cc(C(F)F)c1` [Example 783, 6-[4-[3-(difluoromethyl)-5-fluorobenzyl]piperazin-1-yl]-3-(trifluoromethyl)[1,2,4]triazolo[4,3-b]pyridazine] stands 0.84 µM.
